The values that follow come from US8623908B2, “Use of tellurium compounds for inhibition of interleukin-converting enzyme” (Biomas Ltd., priority 2004, dated 2014).

Where only a bound is given, the exact number is not on record here.

The test system of series [1] is IL-1β secretion by human PBMC. The experiment in a line: SAC-induced secretion of IL-1β by PBMC (ELISA). It counts as cell-based. The procedure:
(§1) Human peripheral blood mononuclear cells (PBMC) were isolated from randomly selected healthy donors by Ficoll-Hypaque (Pharmacia, Piscataway, N.J.) density-gradient centrifugation. PBMC were adjusted to 2.5×10^6 cells/ml and cultured in enriched RPMI 1640 medium (Biological industries, Kibbutz Beit Haemek, Israel) with 10% FCS (Biological industries) at 37° C. and 7% CO2.
(§2) Cells were first treated with various concentrations of AS101 and after 1 hour SAC was added. After 24 hours, supernatants were collected and evaluated for cytokine content. Viability at the end of these experiments, as assessed by tryptan blue exclusion method, was always found to be >95%.
(§3) The R&D Systems (Minneapolis, Minn.) IL-18 and IL-1β ELISA kits were used for the quantitative measurement of these cytokines either in supernatants or in mice sera.
(§4) PBMC (2.5×10^6 cells/ml) were treated with various concentrations of AS101 and after 1 hour were stimulated with SAC (10^−3 V/V). Results represent means±SE of three experiments **p<0.05 decrease vs SAC; *p<0.01 decrease vs SAC. Optimal concentration of SAC for cytokine secretion stimulation was 10^−3 v/v (data not shown).

A further series has as its system IL-18. The experiment in a line: IL-18 levels in LPS-induced septic mice. It counts as in vivo, c57BL/6J mice. The settings on record: 24 hours after LPS, FIG. 7a. The protocol: For serum cytokine evaluation, PBS or AS101 was injected intraperitoneally (i.p.) 2 hours following LPS treatment. For survival experiments AS101 was injected i.p. daily at various concentrations starting 1 hour and up to 24 hours following LPS until the end of the experiment.
as §3
PBS (control) and AS101 at various concentrations were injected into c57BL/6J mice 2 hours following induction of sepsis by LPS (0.5 mg/mouse) treatment. 24 hours after LPS injection, mice were sacrificed and evaluated for plasma concentration of these cytokines in order to determine whether AS101 can inhibit production of IL-18 and IL-1β in vivo.

Series [2] concerns IL-18 secretion by human PBMC. In words: Role of IFN-γ: IL-18 inhibition in PBMC with IFN-γ neutralizing antibody. It counts as cell-based. The settings on record: anti IFN-γ antibody 0.1 μg/ml 2 hours before AS101 0.5 μg/ml; SAC; 24 hours; FIG. 6. The procedure: as §3
In order to investigate the possibility that enhancement of IFN-γ levels by AS101 might have a synergistic effect on IL-18 inhibition, rhIFN-γ neutralizing antibody (0.1 μg/ml) was delivered to PBMC (2.5×10^6 cells/ml) 2 hours before AS101 (0.5 μg/ml). SAC (10^−3 v/v) was added 1 hour following AS101. Supernatants were collected after 24 hours and evaluated for IL-18 levels.

The test system of series [3] is IL-18 secretion by human PBMC. In words: SAC-induced secretion of IL-18 by PBMC (ELISA). It counts as cell-based. The protocol:
as §1, §2, §3, §4

In series [4] the test system is IL-18 mRNA in human HaCat keratinocytes. The experiment in a line: IL-18 mRNA levels in HaCat cells (RT-PCR). It counts as cell-based. Particulars: AS101 1 μg/ml preincubated 2 hours, FIG. 4b. The procedure:
Total RNA was prepared from treated or non treated human keratinocytes by using Tri-reagent (Sigma Aldrich, Rehovot, Israel). Oligo(dt) primed cDNA was synthesized using 2 μg of total RNA. mRNA/cDNA specific cytokine primer pairs were designed and PCR was performed using the following primer pairs (5 μM each): IL-18 (product 558 bp): 178-201 [5′-[…]-3′], 735-759 [5′-[…]-3′]. Cycling conditions were 95° C., 4 minutes; 94° C., 1 minute, 65° C., 1 minute; and 72° C., 1 minute for 29 cycles. GPDH (glyceraldehyde-phosphate-dehydrogenase, product 500 bp) was used as a control: [5′-[…]-3′],[5′-[…]-3′]. The amplified products were visualized using ethidium bromide staining.
Changes at the IL-18 mRNA level were studied when keratinocytes were pretreated with AS101 (1 μg/ml) using optimal concentrations of PMA (10 ng/ml) and LPS (50 ng/ml). Total RNA was isolated from whole cell lysates. GAPDH was used as internal control. Cultured keratinocytes (1×10^6 cells/ml) were either untreated or treated with PMA at 5 ng/ml and 10 ng/ml (line 2 and 3 respectively) and with LPS at 40 ng/ml and 50 ng/ml (line 4 and 5 respectively).
PCR products were amplified for 29 cycles.

For the next series, the system named is PBMC. In words: Viability of treated cells by trypan blue exclusion. It counts as cell-based, human. Particulars: cells treated with various concentrations of AS101, SAC, 24 hours. The protocol:
as §2

In a further series the test system is aspartic proteases. Particulars: Inorg. Chem. 37: 1704-1712, 1998; cited from earlier work.
A further series relates to serine proteases. The settings on record: Inorg. Chem. 37: 1704-1712, 1998; cited from earlier work.
Series [5] deals with human HaCat keratinocytes. The experiment in a line: IL-18 production in HaCat keratinocytes after AS101 treatment alone. It counts as cell-based. The procedure: IL-18 production has a self-regulating negative feedback loop. This cytokine can down regulate its own production by inducing the production of a native inhibitor, IL-18BP, through an IFN-γ dependent mechanism. Since AS101 has been previously shown to increase IFN-γ due to the direct inhibition of the […], studies were carried out to determine whether the inhibitory effect of AS101 results from induction of IL-18BP directly and/or whether neutralization of IFN-γ would abrogate the inhibitory effect of AS101 on IL-18.

A further series concerns cysteine proteases. Particulars: via a catalytic thiol oxidation; Inorg. Chem. 37: 1704-1712, 1998; cited from earlier work.

On to `Cl[TeH]1(Cl)(Cl)OCCO1` [AS101, ammonium trichloro(dioxyethylene-O,O′)tellurate], for which the “SAC-induced secretion levels of IL-1β” value in series [1] (AS101 1 hour before SAC 10^-3 v/v, after 24 hours, FIG. 2b) is reported as “decrease SAC-induced secretion levels”. Moreover, the “concentration from which the decrease in IL-1β secretion is significant (p<0.05)” value in series [1] (SAC, 24 hours) was not below 0.5 µg/mL. Moreover, the “IL-18 level in septic mice” value in the series with IL-18 (AS101 5 μg/mouse i.p. 2 hours after LPS 0.5 mg/mouse) and with IL-18 (AS101 10 μg/mouse i.p. 2 hours after LPS 0.5 mg/mouse) was “significantly inhibited” each time. In [2], the “IL-18 inhibition after neutralization of IFN-γ” value is listed as “does not abrogate IL-18 inhibition”. For the same compound, the “SAC-induced secretion levels of IL-18” value in [3] (AS101 1 hour before SAC 10^-3 v/v, after 24 hours, FIG. 2a) is recorded as “decrease SAC-induced secretion levels”. Also, the “concentration from which the decrease in IL-18 secretion is significant (p<0.05)” value in series [3] (SAC, 24 hours) is not below 0.5 µg/mL. Besides, the “IL-18 mRNA levels” value in [4] (then LPS 50 ng/ml) and in series [4] (then PMA 10 ng/ml) was “Changes in mRNA levels were not detected” throughout. Also, the “viability at the end of the experiments” value with PBMC is recorded as more than 95%. Besides, the “inhibition of aspartic proteases” value with aspartic proteases is reported as “no inhibition”. Also, in the series on serine proteases, the “inhibition of serine proteases” value is on record as “no inhibition”. The “induction of IL-18 production by AS101 treatment” value in series [5] is listed as “not able to induce IL-18 production”. In addition, the “inhibition of cysteine proteases” value with cysteine proteases is reported as “inhibits cysteine proteases”.
